The text below walks through data of patent US7452914B2, “Spiro-benzo[c]chromene derivatives useful as modulators of the estrogen receptors” (Janssen Pharmaceutica N.V., priority 2004, dated 2008).

Read-outs that look alike come from different tables or passages of the source. Some results are limits rather than exact numbers.

One assay concerns MCF-7 cells. The assay can be described thus: MCF-7 Cell Proliferation Assay (14C-thymidine incorporation). The class given is cell-based. To be noted: for IC50: 10 nM 17β-estradiol added, 14C-thymidine, read-out: Antagonist (No.); for EC50: MCF7, agonist mode, increase in 14C-thymidine relative to vehicle control, read-out: Agonist (No.). On the procedure:
This assay was run according to the procedure described by Welshons, et al., (Breast Cancer Res. Treat., 1987, 10(2), 169-75), with minor modification.
Briefly, MCF-7 cells (from Dr. C. Jordan, Northwestern University) were maintained in RPMI 1640 phenol red free medium (Gibco) in 10% FBS (Hyclone), supplemented with bovine insulin and non-essential amino acid (Sigma). The cells were initially treated with 4-hydoxyltamoxifen (10^−8 M) and let stand at 37° C. for 24 hours. Following this incubation with tamoxifen, the cells were treated with compounds at various concentrations.
Compounds to be tested in the agonist mode were added to the culture media at varying concentrations. Compounds to be treated in the antagonist mode were prepared similarly, and 10 nM 17β-estradiol was also added to the culture media. The cells were incubated for 24 hours at 37° C. Following this incubation, 0.1 µCi of ^14C-thymidine (56 mCi/mmol, Amersham) was added to the culture media and the cells were incubated for an additional 24 hours at 37° C. The cells were then washed twice with Hank's buffered salt solution (HBSS) (Gibco) and counted with a scintillation counter. The increase in the ^14C-thymidine in the compound treated cells relative to the vehicle control cells were reported as percent increase in cell proliferation.
In general terms: Dividing cells build labelled thymidine or BrdU into new DNA.

Assay [1] relates to Human Endometrial Ishikawa Cells. The assay can be described thus: Alkaline Phosphatase Assay in Human Endometrial Ishikawa Cells. Type of assay: cell-based. The conditions noted are these: alkaline phosphatase activity, chemiluminescence; for IC50: antagonist mode, 10 nM 17β-estradiol added, read-out: Antagonist (No.); for EC50: 72 h, agonist mode, 3 days incubation, read-out: Agonist (No.). On the procedure: This assay was run according to the procedure described by Albert et a., Cancer Res, […], 50(11), 330-6-10, with minor modification.
Ishikawa cells (from ATCC) were maintained in DMEM/F12 (1:1) phenol red free medium (Gibco) supplemented with 10% calf serum (Hyclone). 24 hours prior to testing, the medium was changed to DMEM/F12 (1:1) phenol red free containing 2% calf serum.
Compounds to be tested in the agonist mode were added to the culture media at varying concentrations. Compounds to be treated in the antagonist mode were prepared similarly, and 10 nM 17β-estradiol was also added to the culture media. The cells were then incubated at 37° C. for 3 days. On the fourth day, the media was remove, 1 volume of 1× Dilution Buffer (Clontech) was added to the well followed by addition of 1 volume of Assay Buffer (Clontech). The cells were then incubated at room temperature for 5 minutes. 1 volume of freshly prepared Chemiluminescence Buffer (1 volume of chemiluminescent substrate (CSPD) in 19 volume Chemiluminescent Enhancer with final concentration of CSPD at 1.25 mM; Sigma Chemical Co.) was added. The cells were incubated at room temperature for 10 minutes and then quantified on a luminometer. The increase of chemiluminescence over vehicle control was used to calculate the increase in alkaline phosphatase activity.

[2] abbreviates: Homo sapiens, MCF7, antagonist mode.

On to “9R*-2″,2″-Dimethyl-propionic Acid-{9-[4′-(2′-piperidinyl-ethoxy)-phenyl]-11,14-spiro[4,5]-5,6,7,8-tetrahydro-9H-benzo[c]chromen-2-yl Ester [R*-15]”, for which the IC50 in the assay with MCF-7 cells (antagonist mode) was 770 nM; in assay [1] it was 220 nM.

“9R*-2″,2″-Dimethyl-propionic Acid-{9-[4′-(2′-piperidinyl-ethoxy)-phenyl]-11,15-spiro[5,5]-5,6,7,8-tetrahydro-9H-benzo[c]chromen-2-yl Ester [R*-16]”: the figures for the IC50 (in the assay with MCF-7 cells (antagonist mode); in assay [1]) were 271 nM and 25.8 nM, respectively.

In the case of “9S*-2″,2″-Dimethyl-propionic Acid-{9-[4′-(2′-piperidinyl-ethoxy)-phenyl]-11,14-spiro[4,5]-5,6,7,8-tetrahydro-9H-benzo[c]chromen-2-yl Ester [S*-15]”, the IC50 (in the assay with MCF-7 cells (antagonist mode); in assay [1]) was greater than 10000 nM in each case.

Consider “9S*-2″,2″-Dimethyl-propionic Acid-{9-[4′-(2′-piperidinyl-ethoxy)-phenyl]-11,15-spiro[5,5]-5,6,7,8-tetrahydro-9H-benzo[c]chromen-2-yl Ester [S*-16]”, for which the IC50 (with MCF-7 cells (antagonist mode); in assay [1]) was greater than 10000 nM throughout.

Take `Oc1ccc2c(c1)O[C@H](c1ccc(OCCN3CCCCC3)cc1)C1=C2CCC2(C1)SCCS2` (stereo in doubt) [R*-11, 9R*-2-(Hydroxy)-{9-[4′-(2′-piperidinyl-ethoxy)-phenyl]-11,14-spiro[4,5]-5,6,7,8-tetrahydro-9H-benzo[c]chromene]: the EC50 (in the assay with MCF-7 cells (Homo sapiens); in assay [1] (Homo sapiens)) was greater than 10000 nM in each case. Also, the IC50 in the assay with MCF-7 cells (setting [2]) is 672 nM; in assay [1] (Homo sapiens), 41.9 nM.

Turning to `Oc1ccc2c(c1)O[C@@H](c1ccc(OCCN3CCCCC3)cc1)C1=C2CCC2(C1)SCCS2` (stereo in doubt) [S*-11, 9S*-2-(Hydroxy)-{9-[4′-(2′-piperidinyl-ethoxy)-phenyl]-11,14-spiro[4,5]-5,6,7,8-tetrahydro-9H-benzo[c]chromene], the EC50 (in the assay on MCF-7 cells (Homo sapiens); in assay [1] (Homo sapiens)) was greater than 10000 nM in each case. The IC50 in the assay on MCF-7 cells (setting [2]) is greater than 10000 nM; in assay [1] (Homo sapiens), 1020 nM.

Consider `Oc1ccc2c(c1)OC(c1ccc(OCCN3CCCCC3)cc1)C1=C2CCC2(C1)SCCS2` (stereo not drawn) [Compound 11], for which the EC50 (in the assay with MCF-7 cells (Homo sapiens); in assay [1] (Homo sapiens)) was greater than 10000 nM in each case. In addition, the figures for the IC50 (with MCF-7 cells (setting [2]); in assay [1] (Homo sapiens)) were 1060 nM and 29.6 nM, respectively.

For `Oc1ccc2c(c1)OC(c1ccc(OCCN3CCCCC3)cc1)C1=C2CCC2(C1)SCCCS2` (stereo not drawn) [Compound 12], the EC50 (with MCF-7 cells (Homo sapiens); in assay [1] (Homo sapiens)) was greater than 10000 nM throughout. Besides, the results for the IC50 (in the assay on MCF-7 cells (setting [2]); in assay [1] (Homo sapiens)) were 686 nM and 35.1 nM, respectively.

Turning to `Oc1ccc2c(c1)OC(c1ccc(OCCN3CCCC3)cc1)C1=C2CCC2(C1)SCCS2` (stereo not drawn) [Compound 13], the EC50 (in the assay with MCF-7 cells (Homo sapiens); in assay [1] (Homo sapiens)) was greater than 10000 nM in each case. Further, the IC50 in the assay on MCF-7 cells (setting [2]) was greater than 10000 nM; in assay [1] (Homo sapiens), 1050 nM.

In the case of `CCN(CC)CCOc1ccc(C2Oc3cc(O)ccc3C3=C2CC2(CC3)SCCS2)cc1` (stereo not drawn) [Compound 14], the EC50 (in the assay on MCF-7 cells (Homo sapiens); in assay [1] (Homo sapiens)) was greater than 10000 nM in each case. Besides, the results for the IC50 (with MCF-7 cells (setting [2]); in assay [1] (Homo sapiens)) were 4970 nM and 65.9 nM, respectively.

With `O=S1(=O)CCCS(=O)(=O)C12CCC1=C(C2)C(c2ccc(OCCN3CCCCC3)cc2)Oc2cc(O)ccc21` (stereo not drawn) [Compound 17], the EC50 (in the assay on MCF-7 cells (Homo sapiens); in assay [1] (Homo sapiens)) was greater than 10000 nM in each case. The IC50 (in the assay on MCF-7 cells (setting [2]); in assay [1] (Homo sapiens)) was greater than 10000 nM throughout.
